Read-outs that look alike come from different tables or passages of the source.
Columns and labels:
[1] = target: T1, TYK2-JH2 domain (Homo sapiens, UniProt P29597); experiment: Binding activity test for TYK2 JH2 domain (Tb-antibody/tracer FRET); details: for JAK1/TYK2 selectivity: ratio of JAK1 JH2 to TYK2 JH2 binding IC50
T1 construct: JAK1-JH2 domain or TYK2-JH2 domain enzyme

[2] = target: T2, JAK1-JH2 domain (Homo sapiens, UniProt P23458); experiment: Binding activity test for JAK1 JH2 domain (Tb-antibody/tracer FRET)
T2 construct: JAK1-JH2 domain or TYK2-JH2 domain enzyme
T2 sequence (P23458 583-855 limits assumed): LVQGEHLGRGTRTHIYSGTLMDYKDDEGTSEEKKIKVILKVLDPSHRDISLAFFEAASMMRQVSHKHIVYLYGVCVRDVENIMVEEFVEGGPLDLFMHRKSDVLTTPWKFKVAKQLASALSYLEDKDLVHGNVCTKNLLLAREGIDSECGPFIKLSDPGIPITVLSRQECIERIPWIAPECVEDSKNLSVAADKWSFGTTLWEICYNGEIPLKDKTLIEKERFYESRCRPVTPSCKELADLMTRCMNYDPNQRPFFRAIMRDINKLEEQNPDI
Description: Binding Activity test for JH2 domain of JAK and TYK2
75 nL DMSO for high control and low control.
For low control, add 5 μL/well assay buffer. […] After enzyme system prepared, add 5 μL of Tb-antibody solution into each wells of assay plate. […] After Tb-antibody added, also add 5 μL of tracer into the assay plate. […] Incubate for 60 mins at 25° C. firstly and then continue to incubate the plate at 4° C. overnight. Read by envision in FRET mode. The Luminescence value was recorded by a multi-label reader Envision (PerkinElmer). Inhibition Rate was calculated relative to vehicle (DMSO) treated control wells using following formula:
wherein • RLU_compound=the relative light unit of cells treated with test compounds • RLU_low control=the relative light unit of medium with DMSO only • RLU_high control=the relative light unit of cells treated with DMSO only

[3] = read-out: TYK2 JH2 Binding IC50
[4] = read-out: JAK1 JH2 Binding IC50

T1 sequence (P29597 589-875 limits assumed): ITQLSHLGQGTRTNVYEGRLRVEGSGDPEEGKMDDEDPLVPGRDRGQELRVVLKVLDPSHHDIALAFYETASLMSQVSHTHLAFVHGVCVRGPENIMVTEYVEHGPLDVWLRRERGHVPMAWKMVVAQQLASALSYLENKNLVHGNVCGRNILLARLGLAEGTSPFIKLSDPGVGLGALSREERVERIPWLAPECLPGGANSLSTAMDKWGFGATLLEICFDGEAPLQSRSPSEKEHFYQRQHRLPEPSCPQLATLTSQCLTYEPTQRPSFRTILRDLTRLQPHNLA

Structure (SMILES)	JAK1/TYK2 selectivity [1]	IC50 [1, 3] [nM]	IC50 [2, 4] [nM]	IC50 ([1]; TYK2 JH2 Binding IC50(nM)) [nM]	IC50 ([2]; JAK1 JH2 Binding IC50(nM)) [nM]
[2H]C([2H])([2H])NC(=O)c1cnc(NC(=O)NC)cc1Nc1ncc2cnn(CC(C)(F)F)c2c1OC [Example 33, 4-((1-(2,2-Difluoropropyl)-7-methoxy-1H-pyrazolo[4,3-c]pyridin-6-yl)amino)-N-(methyl-d3)-6-(3-methylureido)nicotinamide]	>139.8	2.14	> 298	–	–
[2H]C([2H])([2H])NC(=O)c1cnc(NC(=O)C2CC2)cc1Nc1ncn2ncc(C(O)C(F)(F)F)c2c1OC (stereo not drawn) [Example 30, 6-(Cyclopropanecarboxamido)-4-((4-methoxy-3-(2,2,2-trifluoro-1-hydroxyethyl)pyrazolo[1,5-c]pyrimidin-5-yl)amino)-N-(methyl-d3)nicotinamide]	822.4	0.134	110	–	–
COC(=O)c1cnc(NC(=O)C2CC2)cc1Nc1ncn2ncc(C#N)c2c1OC [Example 19, Methyl 4-((3-cyano-4-methoxypyrazolo[1,5-c]pyrimidin-5-yl)amino)-6-(cyclopropanecarboxamido)nicotinate]	13.51	1.63	22.1	–	–
[2H]C([2H])([2H])NC(=O)c1cnc(NC(=O)C2CC2)cc1Nc1ncc2cnn(COCC[Si](C)(C)C)c2c1OC [Example 1, 6-(Cyclopropanecarboxamido)-4-((7-methoxy-1-((2-(trimethylsilyl)ethoxy)methyl)-1H-pyrazolo[4,3-c]pyridin-6-yl)amino)-N-(methyl-d3)nicotinamide]	>32.07	–	–	9.31	> 298
[2H]C([2H])([2H])NC(=O)c1cnc(NC(=O)[C@@H]2C[C@@H]2F)cc1Nc1ncc2cnn(CC(C)(F)F)c2c1OC [Example 8, 4-((1-(2,2-Difluoropropyl)-7-methoxy-1H-pyrazolo[4,3-c]pyridin-6-yl)amino)-6-((1S,2S)-2-fluorocyclopropane-1-carboxamido)-N-(methyl-d3)nicotinamide]	561.99	0.288	162	–	–
[2H]C([2H])([2H])NC(=O)c1cnc(NC(=O)C2CC2)cc1Nc1ccc2ncn(CC(C)(F)F)c2c1OC [Example 31, 6-(Cyclopropanecarboxamido)-4-((1-(2,2-difluoropropyl)-7-methoxy-1H-benzo[d]imidazol-6-yl)amino)-N-(methyl-d3)nicotinamide]	69.3	0.3	20.8	–	–
[2H]C([2H])([2H])NC(=O)c1cnc(NC(=O)C2CC2)cc1Nc1ncc2ncn(CC(F)(F)F)c2c1OC [Example 25, 6-(Cyclopropanecarboxamido)-4-((7-methoxy-1-(2,2,2-trifluoroethyl)-1H-imidazo[4,5-c]pyridin-6-yl)amino)-N-(methyl-d3)nicotinamide]	268.51	0.174	46.7	–	–
COC(=O)c1cnc(NC(=O)C2CC2)cc1Nc1ncc2cnn(CC(C)(F)F)c2c1OC [Example 26, Methyl 6-(cyclopropanecarboxamido)-4-((1-(2,2-difluoropropyl)-7-methoxy-1H-pyrazolo[4,3-c]pyridin-6-yl)amino)nicotinate]	443.32	0.26	115	–	–
[2H]C([2H])([2H])NC(=O)c1cnc(NC(=O)NCC)cc1Nc1ncc2cnn(CC(C)(F)F)c2c1OC [Example 32, 4-((1-(2,2-Difluoropropyl)-7-methoxy-1H-pyrazolo[4,3-c]pyridin-6-yl)amino)-6-(3-ethylureido)-N-(methyl-d3)nicotinamide]	>175.4	1.7	> 298	–	–

From patent US20260284066A1, “TYK2 INHIBITORS AND COMPOSITIONS AND METHODS THEREOF” (LYNK PHARMACEUTICALS CO. LTD., priority 2023, published 2026)
